{
  "source": "patent US20230190608A1",
  "about": "“COMPOSITIONS AND METHODS FOR IMPROVING THE APPEARANCE OF SKIN” (L'Oreal, priority 2021, published 2023)",
  "key": {"[1]": {"test_system": "filaggrin (FLG) expression", "test": "Ex vivo skin model, filaggrin immunohistochemical staining", "format": "cell-based, human", "conditions": "0.1% acetyl trifluoromethylphenyl valylglycine added to 0.003% retinol, 7-day culture", "protocol": "The effect of acetyl trifluoromethylphenyl valylglycine and/or retinoids on skin turnover/desquamation, filaggrin expression, desmocollin-1 expression was evaluated in an ex vivo skin model. In this study, the effects of acetyl trifluoromethylphenyl valylglycine (0.1%), retinol (0.003%) and acetyl trifluoromethylphenyl valylglycine+retinol on the skin were evaluated by H&E (assessing for overall tissue health), filaggrin (assessing the level of barrier renewal) and desmocollin-1 (assessing the tight junction between the keratinocytes).\nFresh post-abdominoplasty normal human skin samples (3 lots, age 36-59 years old, Hispanic/Caucasian/African American, female) were acquired from BioIVT Inc. (Westbury, N.Y.). Tissue was defatted and cleaned of blood residue. Explant samples were then created using a 12 mm biopsy punch. Samples were cleaned with sterile PBS. Skin biopsies not receiving treatment served as controls. Skin explants were maintained at air-liquid interface at 37° C. and 5% CO2 in four different treatment groups (n=3 per media type): • 1. […]\nSkin explants were processed for haematoxylin and eosin, and immunohistochemical staining (Reveal Biosciences, CA). […] The primary staining was followed by rabbit anti-mouse IgG or anti-rabbit Poly-HRP-IgG respectively and were detected using the Bond Polymer Refine Detection kit (DS9800, Leica Biosystems, UK). […]"}, "[2]": {"format": "in vitro ADME, human", "protocol": "Human skin samples were obtained from abdominal surgery. Excess subcutaneous fat was removed, if necessary. Skin samples were excised and cut into pieces of around 2 cm×2 cm. Thickness was measured and transepidermal water loss (TEWL) was measured. The human skin was included in the study if the TEWL was between 0.5 and 13 g/m^2/h for abdominal skin. The 2 cm^2 skin samples were kept in a static cell in a diffusion chamber in a Franz cell horizontal cell clamp system (Crown Glass Company, Inc.) and maintained at a constant temperature of 32° C.±1° C. The static cells consist of a donor chamber and a receptor chamber with a 7 mL receptor fluid compartment separated by the skin.\nThe cells were placed on a magnetic stirrer which was integrated with a fixed temperature water bath maintained in order to have 32° C.±1° C. at the skin surface. The receptor compartment of each cell was filled with the receptor fluid (PBS) and was continuously stirred. The skin samples were placed on the receptor compartment. The donor compartment was then placed onto the skin samples. […]\nA composition containing 2 wt % acetyl trifluoromethylphenyl valylglycine was applied to the skin sample at a rate of 10 mg/cell using a positive displacement pipette and the exact amount applied was determined by weight then recorded (Sartorius Entris II Essential Analytical balance, Thermo-Fisher). […]\nThe skin was then stripped with consistent weight and time of application. […] The strips samples were stored with solvent (methanol) at −20° C. for a maximum of 5 days before being analyzed. […] The RS vials were stored with solvent (methanol) at −20° C. for a maximum of 7 days before being analyzed. Dermis and epidermis samples were stored with solvent at −20° C. for a maximum of 7 days before being analyzed. The receptor fluid was taken 16 hours after the application and the samples were analyzed.\nReceptor fluid samples were stored at −20° C. for a maximum of 6 days before being analyzed. […] Samples were stored at −20° C. for a maximum of 5 days before being analyzed.\nThe final extract was analyzed by LC-MS/MS. […]"}, "[3]": {"test_system": "normal human skin samples (explants)", "test": "Ex vivo skin model, H&E staining (overall tissue health)", "format": "cell-based", "conditions": "0.003% retinol in media, 7-day culture"}, "[4]": {"test_system": "desmocollin-1 (DSC1) expression", "test": "Ex vivo skin model, desmocollin-1 immunohistochemical staining", "format": "cell-based, human", "conditions": "0.003% retinol in media, 7-day culture", "protocol": "The effect of acetyl trifluoromethylphenyl valylglycine and/or retinoids on skin turnover/desquamation, filaggrin expression, desmocollin-1 expression was evaluated in an ex vivo skin model. In this study, the effects of acetyl trifluoromethylphenyl valylglycine (0.1%), retinol (0.003%) and acetyl trifluoromethylphenyl valylglycine+retinol on the skin were evaluated by H&E (assessing for overall tissue health), filaggrin (assessing the level of barrier renewal) and desmocollin-1 (assessing the tight junction between the keratinocytes). Fresh post-abdominoplasty normal human skin samples (3 lots, age 36-59 years old, Hispanic/Caucasian/African American, female) were acquired from BioIVT Inc. (Westbury, N.Y.). Tissue was defatted and cleaned of blood residue. Explant samples were then created using a 12 mm biopsy punch. Samples were cleaned with sterile PBS. Skin biopsies not receiving treatment served as controls. Skin explants were maintained at air-liquid interface at 37° C. and 5% CO2 in four different treatment groups (n=3 per media type): • 1. […] The primary staining was followed by rabbit anti-mouse IgG or anti-rabbit Poly-HRP-IgG respectively and were detected using the Bond Polymer Refine Detection kit (DS9800, Leica Biosystems, UK). […]"}},
  "data": [
    {"compound": "CC(=O)N(c1cccc(C(F)(F)F)c1)C(C(=O)NCC(=O)O)C(C)C", "note": "(stereo not drawn) [acetyl trifluoromethylphenyl valylglycine]", "values": [
      {"measurement": "expression of filaggrin", "setting": "[1]", "value": "increases the expression"},
      {"measurement": "amount penetrated through the stratum corneum", "setting": "[2]", "value": "about 0.08 wt %"},
      {"measurement": "amount penetrating past the stratum corneum barrier into epidermis, dermis and receptor fluid", "setting": "[2]", "value": "about 0.8%"},
      {"measurement": "dermal dose", "setting": "[2]", "value": "at least 0.08 wt %"}
    ]},
    {"compound": "CC1=C(/C=C/C(C)=C/C=C/C(C)=C/CO)C(C)(C)CCC1", "note": "[retinol]", "values": [
      {"measurement": "change in H&E", "setting": "[3]", "value": "some mild level of skin irritation"},
      {"measurement": "expression of desmocollin-1", "setting": "[4]", "value": "downward expression"}
    ]}
  ]
}
